Test results published in patent EP0361645B1, “Organic hydrazine derivatives for pharmaceutical use” (ROHM AND HAAS COMPANY, priority 1988, dated 1990).

Key:
[1] = system: intact L5D0 hornworms; experiment: Premature head capsule apolysis in intact L5D0 hornworms, fed treated diet; type: in vivo, M. sexta; details: for ED50: L5D0 larvae, oral, read-out: 50% effective dose
Experimental: Lepidoptera display the onset of a larval molt by slippage of the head capsule down over the mandibles during formation of an underlying pharate head capsule; this morphological marker accompanies epidermal apolysis which ordinarily occurs at or near peak molting hormone titers. Example No. 3 causes a rapid, premature apolysis in newly ecdysed fifth instar day 0 (L5DO) M. sexta larvae. Clear signs of head capsule apolysis are evident 24 hours after the initiation of feeding.
(§1) L4D1 means fourth instar, first day after molting. L4 animals 36 hours after ecdysis were ligated, decapitated and next day injected with varying doses of compound in 1 - 2 ul DMSO. They were scored as follows: 0 = normal L4 abdomens with no L5 crochets or spiracle apolysis; 1 = exposed dorsal vessel (response to moderate levels of molting hormone in the presence of low JH levels); 2 = L5 crochets formed but no spiracle apolysis; 3 = L5 crochets formed and mild spiracle apolysis; 4 = strong molting response, both L5 crochets and spiracle cuticle synthesized. These methods are an adaptation of the method of J. W. Truman, L. M. Riddiford, L. Safranek, 39 Dev. Biol 247 (1974). Injection and scoring of L5D3 abdomens (weighing 6.5 - 7.5 g) are also adaptations of previous methods in H. F. Nijhout, 22 J. Insect Physiol. 453 (1976). Mature feeding stage fifth instar animals weighing 8.5 - 9.5 g were ligated and decapitated, and immediately injected with Example No. 3 in 2 - 5 ul DMSO. Animals were held over moistened filter paper at 25 ° C and were scored after three days. Scoring was as follows: 0 = normal undeveloped blue-green L5D3 abdomen; 1 = light dorsal vessel exposure; 2 = dorsal vessel well-exposed with mild cuticular blanching, abdominal contraction; 3 = complete prepupal cuticle formation with strong abdominal contraction and strong cuticular blanching. For both L4 and L5 abdomens, 50% effective doses were determined by plotting the mean score for all individuals vs. dose, then determining the dose which gives a score of 2.0 and 1.5 respectively. Intact L5D0 hornworms were either allowed to feed on treated commercial black cutworm diet or injected into a proleg and scored after 48 hours. The 50% effective dose was calculated by plotting percentage of the population bearing a prematurely apolysed head capsule vs. dose. For all experiments in this table at least 5 different doses with 10 animals per dose were used.
The dosage differences between the two compounds was even more dramatic in bioassays on intact (unligated) L5D0 hornworms. If the compounds are injected, Example No. 3 was 67-fold as effective as 20-hydroxyecdysone, while if administered orally, it was over 670-fold as potent.
Hemolymph concentrations of 14C-Example No. 3 were measured by feeding L5D0 hornworm larvae artificial diet containing the labelled compound. At specified intervals thereafter measured volumes of hemolymph were collected, extracted and analyzed by thin layer chromatography and high performance liquid chromatography. […] Blood levels then declined rapidly, but remained at a residual level of about 3 uM for at least 36 hours thereafter.

[2] = system: intact L5D0 hornworms; experiment: Premature head capsule apolysis in intact L5D0 hornworms, injected; type: in vivo, M. sexta; details: for ED50: Manduca sexta, L5D0 larvae, read-out: 50% effective dose
Experimental: as §1
The dosage differences between the two compounds was even more dramatic in bioassays on intact (unligated) L5D0 hornworms. […]

[3] = system: Kr cells; experiment: Resistant Kr cell populations: response and ecdysteroid receptor activity; type: cell-based, Drosophila; details: for response of surviving cells (process elaboration, proliferation): four weeks in 1 X 10^-6 M 20 hydroxyecdysone or 1 X 10^-4 M Example No. 3; for ^3H-ponasterone A bound by resistant cell populations: populations reared in 1 X 10^-6 M 20-hydroxyecdysone or 1 X 10^-4 M Example No. 3, solvent controls 10.1
Experimental: Resistant Kr cell populations were reared by incubating cells at an initial density of 8 X 10^6 cells/ml with hormone or Example No. 3. The cells killed by treatment provide a feeder layer for the resistant populations. […] Ponasterone binding was assayed as described below and protein concentrations were determined using the Biorad method. This cross-resistance is compelling evidence that 20-hydroxyecdysone and Example No. 3 act through the ecdysone receptor.

[4] = system: dipteran larvae (both houseflies and mosquitoes) and certain coleopteran larvae; experiment: Control of larvae and ovariole development in other insect orders; type: in vivo
Text: We have observed the induction of premature head capsule apolysis by Example No. 3 in all larval stages of M. sexta. This phenomenon has also been observed in larval Lepidoptera of the families Noctuidae, Pyralidae and Pieridae. […] This latter activity is consistent with its putative ecdysonergic mechanism of action.

[5] = system: ligated M. sexta abdomens (L5D3); experiment: Onset of pupal development in ligated L5D3 M. sexta abdomens (injection); type: in vivo; details: injected into L5D3 abdomens, events related to pupal formation
Experimental: as §1, with “Mature feeding stage fifth instar animals weighing 8.5 - 9.5 g were ligated and decapitated, and immediately injected with Example No. 3 in 2 - 5 ul DMSO.” left out, “Scoring was as follows: 0 = normal undeveloped blue-green L5D3 abdomen; 1 = light dorsal vessel exposure; 2 = dorsal vessel well-exposed with mild cuticular blanching, abdominal contraction; 3 = complete prepupal cuticle formation with strong abdominal contraction and strong cuticular blanching.” left out, “For all experiments in this table at least 5 different doses with 10 animals per dose were used.” left out

Structure (SMILES) | ED50 ([1]; Manduca sexta) | head capsule slippage ([1]; feeding up to 2000 ppm, L5D0 hornworm larvae) | ED50 [2] | response of surviving cells (process elaboration, proliferation) [3] | ^3H-ponasterone A bound by resistant cell populations [3] | control of larvae ([4]; houseflies, mosquitoes, certain coleopteran larvae) | ovariole development ([4]; in all three orders) | ED95 ([1]; Manduca sexta, po, L5D0 hornworm larvae, in artificial diet, read-out: 95% effective dose for premature molting) | fold as potent as 20-hydroxyecdysone ([1]; intact L5D0 hornworms, administered orally) | time to clear signs of head capsule apolysis ([1]; newly ecdysed L5D0 larvae, after the initiation of feeding) | fold as effective as 20-hydroxyecdysone ([2]; intact L5D0 hornworms) | times as potent as 20-hydroxyecdysone [5]
CC(C)(O)CC[C@@H](O)[C@](C)(O)[C@H]1CC[C@@]2(O)C3=CC(=O)[C@@H]4C[C@@H](O)[C@@H](O)C[C@]4(C)[C@H]3CC[C@]12C [20-hydroxyecdysone, reference compound] | > 2000 mg/kg | failed to elicit head capsule slippage | 181 mg/kg | do not respond to either compound | 1.5 femtomoles ^3H-ponasterone A per mg cytosolic protein | – | – | – | – | – | – | –
CC(C)(C)N(NC(=O)c1ccccc1)C(=O)c1ccccc1 [Example No. 3, N'-t-butyl-N,N'-dibenzoylhydrazine] | 3 mg/kg | – | 3.4 mg/kg | do not respond to either compound | 1.4 femtomoles ^3H-ponasterone A per mg cytosolic protein | controls | inhibit ovariole development | ~10 mg/kg | over 670 fold | 24 h | 67 fold | 30 times
